Data: ChEMBL document CHEMBL1201862, “PubChem BioAssay data set” (2004)
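48-hour exposure; five concentrations; linearly interpolated endpoints. GI50 = concentration required for 50% inhibition of growth.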 The source made the active and inactive calls. Rule as the data show it: active = GI50 up to about 1.1 µM and inactive = higher.

How the values were obtained:
Assay in all cases: NCI-60 cell line screen, 48 h
KM-20L2 = tested on: KM-20L2
DMS-273 = tested on: DMS-273
SK-MEL-5 = tested on: SK-MEL-5
SK-OV-3 = tested on: SK-OV-3
M19-MEL = tested on: M19-MEL
LOX IMVI = tested on: LOX IMVI
XF498 = tested on: XF498
MOLT-4 = tested on: MOLT-4
EKVX = tested on: EKVX
K562 = tested on: K562
SK-MEL-28 = tested on: SK-MEL-28
ACHN = tested on: ACHN
U-251 = tested on: U-251
RPMI-8226 = tested on: RPMI-8226
A498 = tested on: A498
NCI/ADR-RES = tested on: NCI/ADR-RES
T47D = tested on: T47D
HT-29 = tested on: HT-29
PC-3 = tested on: PC-3
MDA-MB-231 = tested on: MDA-MB-231

CCCOC(=O)CCC(NC(=O)c1ccc(Nc2nc3ccccc3nc2-c2cccs2)cc1)C(=O)OCCC (stereo not given)
GI50 (KM-20L2): > 100 µM (inactive) | GI50 (DMS-273): > 100 µM (inactive) | GI50 (SK-MEL-5): 72.1 µM (inactive) | GI50 (SK-OV-3): > 100 µM (inactive) | GI50 (M19-MEL): > 100 µM (inactive) | GI50 (LOX IMVI): > 100 µM (inactive) | GI50 (XF498): 79.8 µM (inactive) | GI50 (MOLT-4): 2.31 µM (inactive) | GI50 (EKVX): > 100 µM (inactive) | GI50 (K562): > 100 µM (inactive) | GI50 (SK-MEL-28): > 100 µM (inactive) | GI50 (ACHN): > 100 µM (inactive) | GI50 (U-251): > 100 µM (inactive) | GI50 (RPMI-8226): > 100 µM (inactive)

COc1ccc(NC2=NCCO2)c2ccccc12
GI50 (SK-MEL-5): > 10 µM (inactive) | GI50 (SK-OV-3): > 10 µM (inactive) | GI50 (LOX IMVI): > 10 µM (inactive) | GI50 (A498): > 10 µM (inactive) | GI50 (NCI/ADR-RES): > 10 µM (inactive) | GI50 (MOLT-4): > 10 µM (inactive) | GI50 (EKVX): > 10 µM (inactive) | GI50 (T47D): > 10 µM (inactive) | GI50 (K562): > 10 µM (inactive) | GI50 (SK-MEL-28): > 10 µM (inactive) | GI50 (HT-29): > 10 µM (inactive) | GI50 (PC-3): > 10 µM (inactive) | GI50 (MDA-MB-231): > 10 µM (inactive) | GI50 (ACHN): > 10 µM (inactive) | GI50 (RPMI-8226): > 10 µM (inactive)

O=c1c2cc(I)ccc2nc(-c2cccs2)n1Nc1ccccc1
GI50 (SK-MEL-5): 6.79 µM (inactive) | GI50 (SK-OV-3): 13.9 µM (inactive) | GI50 (LOX IMVI): 0.117 µM (active) | GI50 (NCI/ADR-RES): 22.3 µM (inactive) | GI50 (MOLT-4): 8.17 µM (inactive) | GI50 (EKVX): 13.5 µM (inactive) | GI50 (SK-MEL-28): 17.9 µM (inactive) | GI50 (HT-29): 3.21 µM (inactive) | GI50 (PC-3): 1.61 µM (inactive) | GI50 (ACHN): 0.675 µM (active) | GI50 (U-251): 10.4 µM (inactive) | GI50 (RPMI-8226): 4.61 µM (inactive)

CC1C/C(=C\c2ccc(O)c(O)c2)C(=O)/C(=C/c2ccc(O)c(O)c2)C1 (stereo not given)
GI50 (SK-MEL-5): 4.23 µM (inactive) | GI50 (SK-OV-3): 18.1 µM (inactive) | GI50 (LOX IMVI): 7.06 µM (inactive) | GI50 (A498): 3.18 µM (inactive) | GI50 (NCI/ADR-RES): 18.5 µM (inactive) | GI50 (MOLT-4): 4.76 µM (inactive) | GI50 (EKVX): 14.1 µM (inactive) | GI50 (T47D): 4.57 µM (inactive) | GI50 (K562): 5.83 µM (inactive) | GI50 (SK-MEL-28): 7.69 µM (inactive) | GI50 (HT-29): 18 µM (inactive) | GI50 (PC-3): 14 µM (inactive) | GI50 (MDA-MB-231): 11.3 µM (inactive) | GI50 (ACHN): 8.71 µM (inactive) | GI50 (U-251): 5.51 µM (inactive)

Nc1nc(=S)[nH]c2nc3c(c(-c4ccccc4)c12)CCCC3
GI50 (SK-MEL-5): > 100 µM (inactive) | GI50 (SK-OV-3): > 100 µM (inactive) | GI50 (LOX IMVI): > 100 µM (inactive) | GI50 (NCI/ADR-RES): > 100 µM (inactive) | GI50 (MOLT-4): > 100 µM (inactive) | GI50 (EKVX): 50 µM (inactive) | GI50 (T47D): 60.1 µM (inactive) | GI50 (K562): > 100 µM (inactive) | GI50 (HT-29): > 100 µM (inactive) | GI50 (PC-3): > 100 µM (inactive) | GI50 (MDA-MB-231): > 100 µM (inactive) | GI50 (ACHN): > 100 µM (inactive) | GI50 (U-251): > 100 µM (inactive) | GI50 (RPMI-8226): > 100 µM (inactive)

Cc1cccc2c1Sc1ccccc1C2NC(=O)CN(C)C (stereo not given)
GI50 (KM-20L2): 18.7 µM (inactive) | GI50 (DMS-273): > 100 µM (inactive) | GI50 (SK-MEL-5): 36.1 µM (inactive) | GI50 (SK-OV-3): > 100 µM (inactive) | GI50 (M19-MEL): 47.4 µM (inactive) | GI50 (LOX IMVI): > 100 µM (inactive) | GI50 (XF498): > 100 µM (inactive) | GI50 (MOLT-4): 59.7 µM (inactive) | GI50 (EKVX): > 100 µM (inactive) | GI50 (K562): 81.1 µM (inactive) | GI50 (SK-MEL-28): 52.4 µM (inactive) | GI50 (HT-29): 69.2 µM (inactive) | GI50 (ACHN): 43.4 µM (inactive) | GI50 (U-251): > 100 µM (inactive) | GI50 (RPMI-8226): 77.8 µM (inactive)

C=CC(Br)(CBr)CCC(Cl)C(C)C (stereo not given)
GI50 (SK-MEL-5): 1.85 µM (inactive) | GI50 (SK-OV-3): 4.25 µM (inactive) | GI50 (LOX IMVI): 1.15 µM (inactive) | GI50 (A498): 13.7 µM (inactive) | GI50 (MOLT-4): 1.06 µM (active) | GI50 (EKVX): 9.66 µM (inactive) | GI50 (K562): 1.33 µM (inactive) | GI50 (SK-MEL-28): 1.58 µM (inactive) | GI50 (HT-29): 1.66 µM (inactive) | GI50 (PC-3): 3.45 µM (inactive) | GI50 (MDA-MB-231): 1.4 µM (inactive) | GI50 (ACHN): 2.53 µM (inactive) | GI50 (U-251): 1.66 µM (inactive) | GI50 (RPMI-8226): 0.35 µM (active)

O=Cc1c(Br)[nH]c2ccccc12
GI50 (KM-20L2): > 100 µM (inactive) | GI50 (DMS-273): > 100 µM (inactive) | GI50 (SK-MEL-5): 45.4 µM (inactive) | GI50 (SK-OV-3): 94.4 µM (inactive) | GI50 (M19-MEL): > 79.6 µM (inactive) | GI50 (LOX IMVI): 71.6 µM (inactive) | GI50 (XF498): > 100 µM (inactive) | GI50 (A498): > 100 µM (inactive) | GI50 (NCI/ADR-RES): > 100 µM (inactive) | GI50 (MOLT-4): 27 µM (inactive) | GI50 (EKVX): > 100 µM (inactive) | GI50 (K562): > 100 µM (inactive) | GI50 (SK-MEL-28): > 100 µM (inactive) | GI50 (HT-29): > 100 µM (inactive) | GI50 (U-251): 89.3 µM (inactive) | GI50 (RPMI-8226): 19.3 µM (inactive)

CN(C)C(=S)SCc1ccccc1
GI50 (SK-MEL-5): > 100 µM (inactive) | GI50 (SK-OV-3): > 100 µM (inactive) | GI50 (LOX IMVI): > 100 µM (inactive) | GI50 (A498): 62.5 µM (inactive) | GI50 (NCI/ADR-RES): > 100 µM (inactive) | GI50 (EKVX): > 100 µM (inactive) | GI50 (T47D): 0.033 µM (active) | GI50 (SK-MEL-28): > 100 µM (inactive) | GI50 (HT-29): > 100 µM (inactive) | GI50 (MDA-MB-231): 99.1 µM (inactive) | GI50 (U-251): > 100 µM (inactive)

O=C(NCCCNC(=O)c1ccc2cc(O)c(O)cc2c1)c1ccc2cc(O)c(O)cc2c1
GI50 (SK-MEL-5): 22.8 µM (inactive) | GI50 (LOX IMVI): 24.2 µM (inactive) | GI50 (A498): 63.4 µM (inactive) | GI50 (NCI/ADR-RES): > 100 µM (inactive) | GI50 (MOLT-4): 30 µM (inactive) | GI50 (EKVX): 27.9 µM (inactive) | GI50 (T47D): 26.7 µM (inactive) | GI50 (K562): 33.7 µM (inactive) | GI50 (SK-MEL-28): 40.4 µM (inactive) | GI50 (HT-29): 23.4 µM (inactive) | GI50 (PC-3): 27.4 µM (inactive) | GI50 (ACHN): 23.9 µM (inactive) | GI50 (U-251): 21.9 µM (inactive) | GI50 (RPMI-8226): 29.3 µM (inactive)
